Test results taken from ChEMBL document CHEMBL3988442, “University of Dundee, Small-Polar-MMV Screening Library” (2021).
Values joined by “and” are separate entries in the source; they are usually repeats but may differ in a detail not shown here. Equal values may be shown once.

Experiments:
[1] = test system: Leishmania donovani; assay: Leishmania intramacrophage assay; format: functional, organism-based; conditions: for IC50: Leishmania donovani
[2] = biological target: ClpP1P2 (Mycobacterium tuberculosis (strain ATCC 25618 / H37Rv), UniProt P9WPC3+P9WPC5); assay: in vitro assay to detect presence of AMC directly proportional to the activity of ClpP1P2. GHDDI collaboration.; format: functional
[3] = test system: Plasmodium falciparum; assay: Calibr Malaria Delayed Death Assay SOP; format: functional, organism-based; conditions: for IC50: Plasmodium falciparum
[4] = test system: Schistosoma mansoni; assay: High throughput screening of compounds against Schistosoma mansoni motility; format: functional; set-up: dose or concentration left out as unconfirmed
[5] = biological target: T1, Histidine--tRNA ligase (Leishmania infantum, UniProt A4I591); assay: Leishmania infantum Histidine tRNA synthetase (LdHisRS); format: functional
T1 sequence (A4I591 whole entry): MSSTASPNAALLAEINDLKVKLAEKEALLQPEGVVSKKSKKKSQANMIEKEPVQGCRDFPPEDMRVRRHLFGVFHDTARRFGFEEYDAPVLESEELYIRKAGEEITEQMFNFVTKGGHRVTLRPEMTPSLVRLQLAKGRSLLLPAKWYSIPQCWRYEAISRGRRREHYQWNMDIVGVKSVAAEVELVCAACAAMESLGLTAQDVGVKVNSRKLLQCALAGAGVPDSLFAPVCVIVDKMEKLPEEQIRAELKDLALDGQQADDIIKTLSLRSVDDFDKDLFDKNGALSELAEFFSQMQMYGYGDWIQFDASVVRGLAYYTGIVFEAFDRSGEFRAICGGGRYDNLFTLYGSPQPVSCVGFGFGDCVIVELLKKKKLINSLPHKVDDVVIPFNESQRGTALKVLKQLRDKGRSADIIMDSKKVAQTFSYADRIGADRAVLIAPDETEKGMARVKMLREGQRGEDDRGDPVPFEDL

[6] = In vitro enzyme assay to detect hydrolysis of chlorophenol red-beta-D-[…] directly proportional to the number of Toxoplasma stably expressing beta-galactosidase; format: functional, organism-based, Toxoplasma gondii; conditions: for IC50: Toxoplasma gondii
[7] = biological target: Tryptophan--tRNA ligase (Mycobacterium tuberculosis (strain ATCC 25618 / H37Rv), UniProt P9WFT3); assay: Biochemical assay for Mt-TrpRS; format: functional
[8] = microbe, parasite or virus in culture; conditions: Mycobacterium tuberculosis, 96 h, read-out: pIC50 (converted)
[9] = microbe, parasite or virus in culture; conditions: Mycobacterium tuberculosis, 72 h, read-out: pIC50 (converted)

SMILES | IC50 [1] [µM] | pIC50 [1] | pIC50 [3] | IC50 [3] [µM] | other results
CN(C)S(=O)(=O)c1ccc(-c2nc(C#N)c(NC3CCCCC3)o2)o1 | > 50.1 |  |  |  | IC50 [2]: > 100 µM
Clc1ccccc1C1(c2ccnc(CC3CC3)n2)CCNCC1 |  | 4.801 and 4.355 | 6.68 | 0.268 | 
CCSc1cc(C(=O)NCc2ccccc2O)ccn1 | > 50.1 |  |  |  | Percent Effect [4]: -44.04%
CC(O)CN1CCC(CNCc2ccc(OC(F)(F)F)cc2)CC1 (configuration not stated) | 9.27 | 5.001 | 5.989 | 0.959 | 
Cc1ccc2[nH]c(-c3cn(C4CCNCC4)nn3)nc2c1C | 20.4 | 4.614 | 6.454 | 0.325 | 
Cc1ccc(-c2nc(CNC(C)CCO)[nH]c2-c2ccccn2)cc1 (configuration not stated) |  | 4.821 and 4.459 | 5.824 | 1.25 | 
CN1CCC(N(Cc2ccco2)S(=O)(=O)c2ccc(Br)cc2Cl)CC1 | 20.9 | 4.643 | 6.36 | 0.473 | 
Cc1cc(N2CCC(N(C)C(=O)c3ccccc3)CC2)nc(C)n1 | > 50.1 |  |  |  | Percent Effect [4]: -7.781%
Cc1nc(CCN)cc(N2CCOc3ccc(Cl)cc3C2)n1 | 11.2 | 4.773 |  |  | IC50 [5]: 41.7 µM and 34.2 µM
Cc1ccc(-c2cc(CNc3ncnc4c3CCNCC4)no2)cc1 | 8.55 | 4.865 |  |  | IC50 [6]: 9.58 µM
N[C@@H]1CCC[C@@H](Oc2ccc(F)cc2Oc2cccc(F)c2)[C@@H]1O | > 50.1 |  |  |  | IC50 [7]: > 195 µM
CC(C)CNc1nc2c(cc1C(=O)NCC1CC1)CCNCC2 | 17.7 | 4.725 |  |  | IC50 [2]: > 100 µM
CCOC(=O)N1CCN(c2nc(CCN)nc3sc(C)c(C)c23)CC1 | > 50.1 |  | 5.898 | 1.12 | IC50 [5]: 21.8 µM and 19.6 µM
c1ccc(C2=NOC3(CCN(Cc4c[nH]c5ccccc45)CC3)C2)cc1 | 18.3 | 4.869 |  |  | pIC50 [6]: 5.08; IC50 [6]: 6.84 µM
CC(O)CN1CCC(CNCc2cccc(OC(F)(F)F)c2)CC1 (configuration not stated) | 16.8 | 4.85 | 6.17 | 0.909 | 
CCOc1c(Cl)cc(Cl)cc1CNCCCn1ccnc1 | 16 |  |  |  | IC50 [5]: > 100 µM
Cc1cc(N2CCCCCC2)n2nc(C)c(C)c2n1 | > 50.1 |  |  |  | Percent Effect [4]: -21.59%

SMILES | IC50 [1] [µM] | pIC50 [1] | pIC50 [3] | IC50 [3] [µM] | other results
Cc1nc(CCN)cc(N2CCC(O)(c3ccc(Cl)cc3)CC2)n1 | > 50.1 |  |  |  | IC50 [5]: 46.4 µM and 42.8 µM
Nc1nccc(N2CCC(c3cc(Cc4ccccc4)n[nH]3)CC2)n1 | 42 | 4.363 |  |  | pIC50 [6]: 4.837; IC50 [6]: 20.2 µM
Cc1nccn1CCCn1cncc1-c1ccc2c(c1)CC(C)N2C (configuration not stated) | > 50.1 |  |  |  | IC50 [5]: 20.5 µM and 22.8 µM
O=C(NCCCN1CCCCC1)c1ccc(-n2ccc3ccccc32)s1 | 7.13 | 5.277 |  |  | IC50 [6]: 6.04 µM; IC50 [8]: > 50.1 µM; IC50 [9]: 28.1 µM
CCN(CC)CCNC(=O)c1ccc(-n2ccc3ccccc32)s1 | 11.2 |  |  |  | IC50 [6]: 7.53 µM
Cc1cccc(CNC(CN2CCN(C)CC2)c2ccccc2)c1 (configuration not stated) | 6.36 | 5.046 | 6.605 | 0.185 | 
CC(C)(C)c1nccc(C2(c3ccccc3Cl)CCNCC2)n1 | 7.19 |  | 6.385 | 0.667 | pIC50 [6]: 4.939 and 5.272
COc1cccc(CNC(CN2CCN(C)CC2)c2ccccc2)c1 (configuration not stated) | 22 | 4.672 | 6.596 | 0.308 | 
C1Cc2nc(CCNc3nc(C4CC4)nc4c3CCNCC4)sc2C1 | 5.69 | 5.261 and 5.322 |  |  | IC50 [6]: 12.6 µM
CC(C)c1nccc(C2(c3ccccc3Cl)CCNCC2)n1 | 26.3 |  | 6.087 | 0.789 | 
Cc1ccc(CNC(CN2CCN(C)CC2)c2ccccc2)cc1 (configuration not stated) | 12.8 | 5.055 | 6.589 | 0.247 | 
CCN(CCN(C)C)c1nc(CCN)nc2sc(C)c(C)c12 | > 50.1 |  | 5.974 | 1.21 | IC50 [5]: 49.3 µM and 36.3 µM
Cc1cc2nc(-c3cn(C4CCNCC4)nn3)[nH]c2cc1C | 21.2 | 4.64 | 6.549 | 0.273 | 
Clc1ccccc1C1(c2ccnc(-c3ccncc3)n2)CCNCC1 | 18.6 | 4.623 | 6.636 | 0.264 | 
COc1ccc(C2=Nn3c(CCN)nnc3-c3ccccc3C2)cc1 | 17.9 | 4.676 |  |  | IC50 [5]: > 100 µM
Clc1ccccc1C1(c2ccnc(C3CCCC3)n2)CCNCC1 | 6.68 |  | 6.419 | 0.399 | pIC50 [6]: 5.147; IC50 [6]: 13 µM
Cc1c(C(=O)N2CCC(N3CCCCC3)CC2)n(C)c2ccc(Cl)cc12 | 13.5 | 4.818 | 6.009 | 1.07 | 
